Data taken from ChEMBL document CHEMBL1131387, “Dimers of 5HT1 ligands preferentially bind to 5HT1B/1D receptor subtypes” (Bioorg Med Chem Lett, 1998).

How the values were obtained:
[1] = biological target: T1, 5-hydroxytryptamine receptor 1B (Homo sapiens, UniProt P28222); assay: Binding affinity was evaluated at human recombinant 5-hydroxytryptamine 1B receptor using [3H]5-CT as radioligand
[2] = biological target: T1, 5-hydroxytryptamine receptor 1B; assay: The intrinsic activity was evaluated for its ability to inhibit forskolin-stimulated c-AMP formation mediated by cloned 5-hydroxytryptamine 1B receptor in CHO cell line; Antagonist; assay type: functional, cell-based
[3] = biological target: 5-hydroxytryptamine receptor 1D (Homo sapiens, UniProt P28221); assay: Binding affinity was evaluated at human recombinant 5-hydroxytryptamine 1D receptor using [3H]-5-CT as radioligand
Sequence of 5-hydroxytryptamine receptor 1D (P28221 whole entry): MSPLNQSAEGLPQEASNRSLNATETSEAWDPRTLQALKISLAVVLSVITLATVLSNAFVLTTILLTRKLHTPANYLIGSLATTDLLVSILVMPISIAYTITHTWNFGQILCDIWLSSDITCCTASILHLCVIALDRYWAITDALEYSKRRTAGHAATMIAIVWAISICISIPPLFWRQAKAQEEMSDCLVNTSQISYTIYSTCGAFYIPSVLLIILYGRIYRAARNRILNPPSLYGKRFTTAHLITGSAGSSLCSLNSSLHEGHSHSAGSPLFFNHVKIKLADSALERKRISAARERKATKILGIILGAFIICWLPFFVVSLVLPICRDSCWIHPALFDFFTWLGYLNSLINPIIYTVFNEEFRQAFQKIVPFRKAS

[4] = biological target: T1, 5-hydroxytryptamine receptor 1B; assay: The intrinsic activity was evaluated for its ability to inhibit forskolin-stimulated c-AMP formation mediated by cloned 5-hydroxytryptamine 1B receptor in CHO cell line; Partial Agonist; assay type: functional, cell-based
[5] = biological target: T2, 5-hydroxytryptamine receptor 1A (Homo sapiens, UniProt P08908); assay: Binding affinity was evaluated at human recombinant 5-hydroxytryptamine 1A receptor using [3H]8-OH-DPAT as radioligand
T2 sequence (P08908 whole entry): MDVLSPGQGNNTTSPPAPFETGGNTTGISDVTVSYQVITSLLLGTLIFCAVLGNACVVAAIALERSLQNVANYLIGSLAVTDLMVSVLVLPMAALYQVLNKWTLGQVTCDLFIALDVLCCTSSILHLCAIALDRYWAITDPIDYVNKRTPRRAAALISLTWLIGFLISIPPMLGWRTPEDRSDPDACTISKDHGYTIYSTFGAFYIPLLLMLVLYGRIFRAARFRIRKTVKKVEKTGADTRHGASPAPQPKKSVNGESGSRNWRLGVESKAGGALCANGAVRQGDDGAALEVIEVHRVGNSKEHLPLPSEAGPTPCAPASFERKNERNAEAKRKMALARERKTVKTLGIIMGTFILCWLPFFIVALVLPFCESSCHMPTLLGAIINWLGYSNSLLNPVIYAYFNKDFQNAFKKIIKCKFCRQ

[6] = biological target: T1, 5-hydroxytryptamine receptor 1B; assay: The intrinsic activity was evaluated for its ability to inhibit forskolin-stimulated c-AMP formation mediated by cloned 5-hydroxytryptamine 1B receptor in CHO cell line; assay type: functional, cell-based

T1 sequence (P28222 whole entry): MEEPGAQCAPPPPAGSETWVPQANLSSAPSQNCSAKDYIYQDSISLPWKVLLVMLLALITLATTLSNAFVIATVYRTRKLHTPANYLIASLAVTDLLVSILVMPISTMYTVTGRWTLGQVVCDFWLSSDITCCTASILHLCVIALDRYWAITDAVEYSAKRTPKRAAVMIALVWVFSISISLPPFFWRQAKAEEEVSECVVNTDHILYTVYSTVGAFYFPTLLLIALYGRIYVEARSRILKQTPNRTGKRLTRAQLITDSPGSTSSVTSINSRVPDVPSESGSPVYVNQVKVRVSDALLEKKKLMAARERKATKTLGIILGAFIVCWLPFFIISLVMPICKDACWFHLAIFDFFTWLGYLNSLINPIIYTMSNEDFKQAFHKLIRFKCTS

| Structure (SMILES) | Ki [1] [nM] | Ki [3] [nM] | EC50 [4] | Ki [5] [nM] | EC50 [6] [nM] | EC50 [2] [nM] |
| --- | --- | --- | --- | --- | --- | --- |
| c1ccc2c(N3CCNCC3)cccc2c1 | 10.6 |  |  |  |  | > 10000 |
| CN1CCN(c2cccc3ccc(OCC(=O)N4CCN(C(=O)COc5ccc6cccc(N7CCN(C)CC7)c6c5)CC4)cc23)CC1 | 2.56 | 1.24 | Partial agonist | 4 |  |  |
| CCCN(CCC)C1CCc2cccc(OCCCCCCOc3cccc4c3CC(N(CCC)CCC)CC4)c2C1 (configuration not stated) | 6.4 | 3.9 |  | 6.8 | 50 |  |
| CN1CCN(c2cccc3ccc(OCCOc4ccc5cccc(N6CCN(C)CC6)c5c4)cc23)CC1 | 2.1 | 1.71 |  | 14 |  | > 1000 |

Molecules with a lower Ki [1], results first:

| Ki [1] [nM] | Ki [3] [nM] | EC50 [4] | Ki [5] [nM] | EC50 [6] [nM] | Structure (SMILES) | EC50 [2] [nM] |
| --- | --- | --- | --- | --- | --- | --- |
| 0.76 | 0.4 | Partial agonist | 0.96 |  | CN1CCN(c2cccc3ccc(OCCOc4ccc5[nH]cc(CCN)c5c4)cc23)CC1 |  |
| 0.7 | 0.5 | Partial agonist | 5.8 |  | CN1CCN(c2cccc3ccc(OCC(=O)Nc4ccc(NC(=O)COc5ccc6[nH]cc(CCN)c6c5)cc4)cc23)CC1 |  |
